In patent US6689767B2, “Triterpenes having antibacterial activity” (Regents of the University of Minnesota, priority 2000, dated 2004):
Where two headings read alike, the source gives them in different places.

Assays:
Format in all cases: cell-based
Escherichia coli = test: Kirby-Bauer disk diffusion growth inhibition, Escherichia coli; settings: for zone of inhibition at 0.125 µg/mL / zone of inhibition at 1000 µg/mL: Escherichia coli; for zone of inhibition at 0.125 µg/mL: read-out: Zone of inhibition Escherichia coli; for zone of inhibition at 1000 µg/mL: 1 mg/ml in DMSO
Protocol: (§1) The compounds disclosed herein were tested for growth inhibition against four strains of bacteria: Escherichia coli, Staphylococcus aureus, methicillin-resistant Staphylococcus aureus, and Bacillus subtilis. […] They represent […]. E. coli is a gram-negative, non-spore forming, rod-shaped, opportunistic pathogen that resides in the human digestive tract. S. aureus is a gram positive coccus, is usually found morphologically as a […], and is an opportunistic human pathogen, often residing on or in the skin. B. subtilis is a gram positive spore-forming rod. Its native environment is the soil. The chemicals were tested for growth-inhibition of the bacteria by the Kirby-Bauer method. See, e.g., Microbiology, third edition; Lansing M. Prescott, John P. Harley, and Donald A. Klein; Wm. C. Brown Publishers.
(§2) Mueller-Hinton agar (Difco Lab, Michigan) was prepared according to the manufacturer's directions, and 20 ml was dispensed in each sterile petri dish. Sterile nutrient broth (Difco Lab, Michigan) was also prepared according to the manufacturer's directions.
(§3) Bacteria were grown in liquid nutrient broth for 18 hours at 37° C. until they were turbid.
(§4) An aliquot of 0.5 ml of cultured bacteria was aseptically transferred to the surface of a Mueller-Hinton agar plat, and spread using a cotton-tipped swab. Plates were then allowed to dry for 5 minutes. Then a 10 mm diameter filter paper disk impregnated with the test chemical was placed with sterile forceps on the plate. The disks were impregnated with 100 μl of a solution of the test compound in DMSO or in water, at the indicated concentrations in Table 1.
(§5) The zones of inhibition were measured after 18 hours growth at 37° C. Tests were done in triplicate.
(§6) Additional compounds were tested for activity against E. coli, laboratory strain S. aureus (not methicillin resistant), and B. subtilis. The compounds were tested by the disk diffusion method, as in Example 1, with application of a 10 mg/mil solution of the test compound in DMSO.

Staphylococcus aureus = test: Kirby-Bauer disk diffusion growth inhibition, Staphylococcus aureus; settings: for zone of inhibition at 0.125 µg/mL / zone of inhibition at 1000 µg/mL: Staphylococcus aureus; for zone of inhibition at 0.125 µg/mL: read-out: Zone of inhibition Staphylococcus aureus; for zone of inhibition at 1000 µg/mL: 1 mg/ml in DMSO
Protocol: as §1, §2, §3, §4, §5, §6
Derivatives of lupeol were tested for inhibition of bacterial growth using the Kirby-Bauer disk diffusion method and by growth in liquid culture. For the disk diffusion method, compounds were dissolved in DMSO and 100 μl was added to the 10 mm filter paper disk. The amount of compound applied to the disk varied. The amount applied for each compound was as follows: lupeol (50 μg), lupeol-3-maleate (15 μg), lupeol-3-thiodiglycolate (15 μg), lupeol-3-dimethyl succinate (60 μg), lupeol-3-phosphate (30 μg), lupenone (50 μg), lupenon-3-oxime (50 μg), lupeol-3-amine (50 μg), lupenon-1,2-ene-2-ol (50 μg). In liquid culture, the compounds were dissolved in DMSO at 1 mg/ml and then 100 μl was added to 7 ml of sterile broth, along with a 1/200 dilution of freshly grown bacterial liquid culture.

Bacillus subtilis = test: Kirby-Bauer disk diffusion growth inhibition, Bacillus subtilis; settings: for zone of inhibition at 0.125 µg/mL / zone of inhibition at 1000 µg/mL: Bacillus subtilis; for zone of inhibition at 0.125 µg/mL: read-out: Zone of inhibition Bacillus subtilis; for zone of inhibition at 1000 µg/mL: 1 mg/ml in DMSO
Protocol: as §1, §2, §3, §4, §5, §6

[1] = 125 ng/ml in water, 100 μl on 10 mm disk, 18 hours 37° C.
[2] = 100 μl on 10 mm disk, 18 hours 37° C.
[3] = 5 mg/ml in DMSO, 100 μl on 10 mm disk, 18 hours 37° C.
[4] = 10 mg/ml in DMSO, 100 μl on 10 mm disk, 18 hours 37° C.

CC1(C)CCC23CC[C@@]4(C)C(CCC5[C@@]6(C)C=C(OC(=O)CCC(=O)O)C(=O)C(C)(C)C6CC[C@]54C)C2C1OC3 (stereo partly drawn) [3-Allobetulon-1-ene-2-succinate, 3-Allobetulon-1-en-2succinate]
0 mm: zone of inhibition at 0.125 µg/mL (Escherichia coli; [1]) | zone of inhibition at 0.125 µg/mL (Staphylococcus aureus; [1]) | zone of inhibition at 0.125 µg/mL (Bacillus subtilis; [1])

CC(=O)OC1CCC2(C)C(CCC3(C)C2CCC2C4C5OC(=O)C4(CCC5(C)C)CCC23C)C1(C)C (stereo not drawn) [3β-Acetoxy-19αH-19,28 lactone oleanan]
0 mm: Zone of inhibition Escherichia coli (Escherichia coli; [1]) | Zone of inhibition Staphylococcus aureus (Staphylococcus aureus; [1]) | Zone of inhibition Bacillus subtilis (Bacillus subtilis; [1])

CC1(C)CCC23CCC4(C)C(CCC5C6(C)CCC(OC(=O)CCCC(=O)O)C(C)(C)C6CCC54C)C2C1OC3 (stereo not drawn) [Allobetulin 3-glutarate, Allobetulin-3-glutarate]
0 mm: zone of inhibition at 0.125 µg/mL (Escherichia coli; [1]) | zone of inhibition at 1000 µg/mL (Escherichia coli; [2]) | zone of inhibition at 0.125 µg/mL (Staphylococcus aureus; [1]) | zone of inhibition at 1000 µg/mL (Staphylococcus aureus; [2]) | zone of inhibition at 0.125 µg/mL (Bacillus subtilis; [1]) | zone of inhibition at 1000 µg/mL (Bacillus subtilis; [2])

CC1(C)CCC23CC[C@@]4(C)C(CCC5[C@@]6(C)CCC(OP(=O)(O)O)C(C)(C)C6CC[C@]54C)C2C1OC3 (stereo partly drawn) [Allobetulin 3-phosphate, allobetulin-3-phosphate]
0 mm: zone of inhibition at 0.125 µg/mL (Escherichia coli; [1]) | zone of inhibition at 0.125 µg/mL (Staphylococcus aureus; [1]) | zone of inhibition at 0.125 µg/mL (Bacillus subtilis; [1])

CC1(C)CCC23CCC4(C)C(CCC5C6(C)CCC(OC(=O)CCC(=O)O)C(C)(C)C6CCC54C)C2C1OC3 (stereo not drawn) [Allobetulin 3-succinate, Allobetulin-3-succinate]
0 mm: Zone of inhibition Escherichia coli (Escherichia coli; [3]) | Zone of inhibition Staphylococcus aureus (Staphylococcus aureus; [3]) | Zone of inhibition Bacillus subtilis (Bacillus subtilis; [3])

CC1(C)CCC23CC[C@@]4(C)C(CCC5[C@@]6(C)CCC(OP(=O)(O)O)C(C)(C)C6CC[C@]54C)C2C1OC3=O (stereo partly drawn) [Allobetulin lactone phosphate, allobetulin lactone-3-phosphate]
0 mm: Zone of inhibition Escherichia coli (Escherichia coli; [1]) | Zone of inhibition Staphylococcus aureus (Staphylococcus aureus; [1]) | Zone of inhibition Bacillus subtilis (Bacillus subtilis; [1])

CC1(C)CCC23CC[C@@]4(C)C(CCC5[C@@]6(C)CC[C@H](O)C(C)(C)C6CC[C@]54C)C2C1OC3=O (stereo partly drawn) [Allobetulin lactone]
0 mm: zone of inhibition at 0.125 µg/mL (Escherichia coli; 18 h) | zone of inhibition at 0.125 µg/mL (Staphylococcus aureus; 18 h) | zone of inhibition at 0.125 µg/mL (Bacillus subtilis; 18 h)

CC1(C)CCC23CC[C@@]4(C)C(CCC5[C@@]6(C)CC[C@H](O)C(C)(C)C6CC[C@]54C)C2C1OC3 (stereo partly drawn) [Allobetulin]
0 mm: zone of inhibition at 1000 µg/mL (Escherichia coli; [2]) | zone of inhibition at 1000 µg/mL (Staphylococcus aureus; [2]) | zone of inhibition at 1000 µg/mL (Bacillus subtilis; [2])

CC1(C)CCC23CC[C@@]4(C)C(CCC5[C@@]6(C)CCC(=O)C(C)(C)C6CC[C@]54C)C2C1OC3 (stereo partly drawn) [Allobetulon]
0 mm: zone of inhibition at 0.125 µg/mL (Escherichia coli; [1]) | zone of inhibition at 0.125 µg/mL (Staphylococcus aureus; [1]) | zone of inhibition at 0.125 µg/mL (Bacillus subtilis; [1])

C=C(C)C1CCC2(COC(=O)CCCC(=O)O)CCC3(C)C(CCC4C5(C)CCC(O)C(C)(C)C5CCC43C)C12 (stereo not drawn) [Betulin 28-glutarate, Betulin-28-glutarate]
0 mm: zone of inhibition at 0.125 µg/mL (Escherichia coli; [1]) | zone of inhibition at 0.125 µg/mL (Staphylococcus aureus; [1]) | zone of inhibition at 0.125 µg/mL (Bacillus subtilis; [1])

C=C(C)[C@@H]1CC[C@]2(COC(=O)/C=C\C(=O)O)CC[C@]3(C)[C@H](CC[C@@H]4[C@@]5(C)CC[C@H](O)C(C)(C)[C@@H]5CC[C@]43C)[C@@H]12 [Betulin 28-maleate, Betulin-28-maleate]
0 mm: Zone of inhibition Escherichia coli (Escherichia coli; [4]) | Zone of inhibition Staphylococcus aureus (Staphylococcus aureus; [4]) | Zone of inhibition Bacillus subtilis (Bacillus subtilis; [4])

C=C(C)C1CCC2(COC(=O)CCC(=O)O)CC[C@@]3(C)C(CCC4[C@@]5(C)CCC(O)C(C)(C)C5CC[C@]43C)C12 (stereo partly drawn) [Betulin 28-succinate, Betulin-28-succinate]
0 mm: zone of inhibition at 1000 µg/mL (Escherichia coli; [2]) | zone of inhibition at 1000 µg/mL (Staphylococcus aureus; [2]) | zone of inhibition at 1000 µg/mL (Bacillus subtilis; [2])

C=C(C)C1CCC2(COC(=O)[C@@H](N)CCC(=O)OCc3ccccc3)CCC3(C)C(CCC4C5(C)CCC(OC(=O)[C@@H](N)CCC(=O)OCc6ccccc6)C(C)(C)C5CCC43C)C12 (stereo partly drawn) [Betulin Di-(L-glutamic acid γ-benzyl ester) ester]
0 mm: Zone of inhibition Escherichia coli (Escherichia coli; [1]) | Zone of inhibition Staphylococcus aureus (Staphylococcus aureus; [1]) | Zone of inhibition Bacillus subtilis (Bacillus subtilis; [1])
